The results in this text go back to patent US6881427B2, “Topical anti-inflammatory composition containing linseed and licorice extracts” (Alticor Inc., priority 2002, dated 2005).

Common to all, as to type: cell-based, human
The subject of data set [1] is TESTSKIN II. The data set is described as follows: MTT reduction toxicity assay on TESTSKIN II skin tissue. To be noted: MTT % survival, 24-hour exposure; PMA 10 ng/mL.
Protocol: The release of PGE2 and GM-CSF from skin tissue provides a measure of protective potential following pre-incubation with test materials, whereas the reduction of MTT (3-[4,5-dimethylthiazol-2yl]-2,5-diphenyl-2H-tetrazolium bromide) provides an estimate of toxicity potential.
(§1) The skin tissue used in this study, TESTSKIN II (Organogenesis Inc., Canton, Mass.), is constructed from human skin with anatomical structures and physiological functions that simulate actual living skin. This tissue has an upper epidermal layer with well-differentiated keratinocytes and stratum corneum and a lower dermal layer with living fibroblasts able to produce collagen matrix.
(§2) The test materials were evaluated for exposure periods of 4, 8, and 24 hours, and their toxicity was evaluated for an exposure period of 24 hours. Test materials 2, 4, 6, and 8 were used neat. […] All dilutions were made in growth media, and assays were performed in triplicate.
All supplies and handling equipment are sterilized, and techniques for maintaining sterility are used. […]
Tissues free of test materials are incubated with 2 mg/mL of MTT solution (made up in growth media) in a humidified 37° C. incubator supplied with 10% CO2 for 2 hours. […] Spent MTT solution is read in a 96 well flat bottom plate at A540. […]
Data set [2] concerns PGE2. The data set is described as follows: PGE2 secretion from TESTSKIN II tissue (competitive ELISA). To be noted: after 24 hours of exposure.
Protocol: The anti-inflammatory potential of a composition according to the present invention that includes a combination of linseed extract and licorice extract was evaluated as described herein. The release of PGE2 and GM-CSF from skin tissue provides a measure of protective potential following pre-incubation with test materials, whereas the reduction of MTT (3-[4,5-dimethylthiazol-2yl]-2,5-diphenyl-2H-tetrazolium bromide) provides an estimate of toxicity potential.
The skin tissue used in this study, TESTSKIN II (Organogenesis Inc., Canton, Mass.), is constructed from human skin with anatomical structures and physiological functions that simulate actual living skin. […]
The test materials were evaluated for exposure periods of 4, 8, and 24 hours, and their toxicity was evaluated for an exposure period of 24 hours. […]
Four controls are included: total activity, non-specific binding, maximum binding, and substrate blank. […] Following incubation, 50 μL of stop solution (trisodium phosphate solution) is added and the optical density is measured immediately at 405 nm (reference wavelength of 570-590 nm) using a microplate spectrophotometer. The amount of PGE2 present in the supernatant is determined by comparison to the calibration curve generated by the recombinant PGE2 standard. […]
Data set [3] deals with IL-1α. The data set is described as follows: IL-1α secretion from TESTSKIN II tissue (ELISA). To be noted: test materials neat, dexamethasone 100 μM.
Protocol: as §1, §2
All supplies and handling equipment are sterilized, and techniques for maintaining sterility are used. Skin tissue is punched out using an 8 mm biopsy punch from the middle section and transferred to a well of a six-well plate containing transwell inserts and 1 mL of growth media. Tissues are transferred to a humidified 37° C. incubator supplied with 10% CO2 and incubated overnight.
Test materials to be used are dosed on a sterile dosing pad (10 μL/pad) and placed on top of tissue. Dosed tissues are returned to the incubator and incubated for a specified amount of time (e.g., 4 hours), after which the supernatants are replaced with fresh media. Collected supernatants are used for PGE2 and GM-CSF assays.
Assays are performed in triplicate, and the numbers shown correspond to averages of the triplicate treatments.
Tissues are pre-incubated with test materials for 4 hours prior to being stimulated by PMA or Histamine. Secreted IL-1α, PGE2 and GM-CSF are measured using the ELISA method.

In the case of `CCCCCCCCCCCCCC(=O)O[C@@H]1[C@@H](C)[C@@]2(O)[C@@H](C=C(CO)C[C@]3(O)C(=O)C(C)=C[C@@H]23)[C@@H]2C(C)(C)[C@]12OC(C)=O` [PMA, phorbol myristate acetate], the “toxicity to TESTSKIN II tissue, in words” value in data set [1] is listed as “mildly toxic”. Moreover, the “induction of PGE2 secretion by stimulus, in words” value in data set [2] is given as “fails to induce PGE2 secretion above the background level”.

Turning to `C[C@@H]1C[C@H]2[C@@H]3CCC4=CC(=O)C=C[C@]4(C)[C@@]3(F)[C@@H](O)C[C@]2(C)[C@@]1(O)C(=O)CO` [Dexamethasone, dexamethasone], the IL-1α secretion is recorded as 22.00 ± 9.69 in data set [3] (0 Hr, average of triplicate ± SD); 24.45 ± 9.47 in data set [3] (8 Hr); 25.42 ± 8.94 in data set [3] (24 Hr).
